Results as given in patent publication US4877870A, “Process for producing 10-hydroxyanthracyclines” (Kirin Beer Kabushiki Kaisha, priority 1986, dated 1989).

Details: ICR mice, intravenous injection

## CC[C@@]1(O)C[C@H](O[C@H]2C[C@H](N3CCOCC3)[C@H](O)[C@H](C)O2)c2c(O)c3c(c(O)c2[C@H]1O)C(=O)c1cccc(O)c1C3=O [M-R20X2, 3'-deamino-3'-(4-morpholinyl)-13-deoxo-10-hydroxycarminomycin]
  LD50: 3.55 mg/kg
